# Assay results: the NIST ThermoML archive (doi:10.1016/j.fluid.2011.11.011)
# Numbers after ± are expanded uncertainties.
# Experiment: an = ratio of the nth substance listed
# Conditions: 275 K, Pendant drop shape
surface tension liquid-gas (a2 = 0),surface tension liquid-gas (a1 = 500),surface tension liquid-gas (a1 = 1000),surface tension liquid-gas (a1 = 2000),surface tension liquid-gas (a1 = 2500),surface tension liquid-gas (a1 = 3000),surface tension liquid-gas (a1 = 3500),surface tension liquid-gas (a1 = 4000),surface tension liquid-gas (a1 = 5000),Structure (SMILES)
72.7 ± 2.3 mN/m,–,–,–,–,–,–,–,–,O [water] + CCCCCCCCCCCCOS(=O)(=O)[O-].[Li+]
–,56.6 ± 1.8 mN/m,53.1 ± 1.7 mN/m,41.2 ± 1.3 mN/m,38.9 ± 1.2 mN/m,37.3 ± 1.2 mN/m,37 ± 1.2 mN/m,36.7 ± 1.2 mN/m,36.7 ± 1.2 mN/m,CCCCCCCCCCCCOS(=O)(=O)[O-].[Li+] [lithium dodecyl sulfate] + O
